Results on 30 compounds are retold here after patent US5324648A, “Substituted isocoumarins as serine protease inhibitors and anti-inflammatory agents” (Georgia Tech Research Corporation, priority 1992, dated 1994).

The target of assay [1] is T1, porcine pancreatic elastase (PPE) (Sus scrofa, UniProt P00772).
T1 construct: from tissue; host or cells: porcine pancreas (from the name)
Put plainly: Inactivation of porcine pancreatic elastase (PPE). It is filed as biochemical.
Description: Inactivation rates of serine proteases by substituted isocoumarins were measured by the incubation method. An aliquot of inhibitor (25 or 50 μl) in Me2 SO was added to a buffered enzyme solution (0.01-2.3 μM) to initiate the inactivation. Aliquots (50 μl) were withdrawn at various intervals and the residual enzymatic activity was measured. Me2 SO concentration in the reaction mixture was 8-12% (v/v). 0.1 Hepes, 0.01M CaCl2, pH 7.5 buffer was utilized for trypsin and coagulation enzymes. 0.1M Hepes, 0.5M NaCl, pH 7.5 was utilized for other serine proteases. […] Peptide thioesters or peptide nitroanilides with appropriate sequence were used as substrates for various serine proteases. All peptide thioester hydrolysis rates were measured with assay mixtures containing 4,4'-dithiodipyridine (ε324 =19800M^-1 cm^-1 ; Grasetti & Murray, Arch. Biochem. Biophys. 119, pp 41-49 (1967)). Peptide 4-nitroanilide nitroanilide hydrolysis was measured at 410 nm (ε410 =8800M^-1 cm^-1 ; Erlanger et al., Arch. Biochem. Biophys. 95, pp 271-278 (1961)). First order inactivation rate constant (kobs) were obtained from plots of ln (vt /vo) vs time, and the correlation coefficients were greater than 0.98.
^a Inactivation rates were measured at 0.1M Hepes, 0.5 NaCl, pH 7.5,
8-12% Me2 SO and 25° C. by incubation method.
^a Inhibition rates were measured in 0.1M Hepes, 0.05M NaCl, pH 7.5
buffer, 8-9% Me2 SO and at 25° C.
^a Inhibition constants were in 0.1M Hepes, 0.5M NaCl, pH 7.5 buffer,
8-9% Me2 SO and at 25° C.
^a Inhibition rates were measured in 0.1M Hepes, 0.5M NaCl, 2.5%
Me2 SO, pH 7,5 and at 25° C.
^a Inhibition was measured in 0.1M Hepes, 0.5M NaCl, pH 7.5 buffer,
5-10% Me2 SO and at 25° C. Suc--Val--Pro--Phe--NA (0.48 mM)
was used as the substrate for chymotrypsin and cat G.
^a Inhibition rates were measured in 0.1M Hepes, 0.5M NaCl, pH 7.5

Assay [2] deals with T2, human leukocyte elastase (HLE) (Homo sapiens, UniProt P08246).
T2 construct: from tissue; host or cells: human leukocytes (from the name)
T2 sequence (P08246 30-267): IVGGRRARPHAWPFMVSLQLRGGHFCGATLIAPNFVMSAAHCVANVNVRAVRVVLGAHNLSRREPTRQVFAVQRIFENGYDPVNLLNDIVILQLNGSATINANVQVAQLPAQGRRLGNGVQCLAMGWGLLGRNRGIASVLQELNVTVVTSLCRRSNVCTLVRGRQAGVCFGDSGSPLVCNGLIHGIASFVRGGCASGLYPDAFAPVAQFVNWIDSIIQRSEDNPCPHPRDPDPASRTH
The assay can be described thus: Inactivation of human leukocyte elastase (HLE). It counts as biochemical.

For another assay, the target named is chymotrypsin (Bos taurus, UniProt P00766). The assay can be described thus: Inactivation of chymotrypsin. It is filed as biochemical, bovine. Conditions: read-out: kobs/[I].
Where [3] appears, read: Table XI, pH 7.5, 25° C, [I] 6.3-600 μM, per line, read-out: kobs/[I].
Setting [4] is: Table XI, pH 7.5, 25° C, [I] 1.4-6.6 μM, per line, read-out: kobs/[I].
The mark [5] stands for this setting: Table XVI, pH 7.5, 25° C, [I] 0.07-710 μM, read-out: kobs/[I].
The mark [6] stands for this setting: Table XVI, pH 7.5, 25° C, [I] 1.7-58 μM.
[7] abbreviates: pH 7.5, Table XII, 2.5% Me2SO, 25° C, [I] 0.7-1.9 μM, read-out: kobs/[I].

Where two headings read alike, the source gives them in different places. Where only a bound is given, the exact number is not on record here.

T1 sequence (P00772 27-266): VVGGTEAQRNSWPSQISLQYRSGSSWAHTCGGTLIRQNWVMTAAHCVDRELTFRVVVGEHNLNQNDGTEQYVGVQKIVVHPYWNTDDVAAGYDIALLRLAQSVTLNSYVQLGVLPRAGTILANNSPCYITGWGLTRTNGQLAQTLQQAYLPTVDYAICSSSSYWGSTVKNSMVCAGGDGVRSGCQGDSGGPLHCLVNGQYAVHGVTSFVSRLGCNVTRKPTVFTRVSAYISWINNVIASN

With `COc1oc(=O)c2cc(NC(=O)NCC(C)C)ccc2c1Cl`, the kinact/KI in assay [1] (setting [3]) came out at 3200 M⁻¹ s⁻¹; in assay [2] (setting [4]), 20000 M⁻¹ s⁻¹. `COc1oc(=O)c2cc(NC(=O)CC(CC(=O)O)c3ccccc3)ccc2c1Cl` (stereo not shown) [7-(3-phenylglutaryl)amino-4-chloro-3-methoxyisocoumarin]: the values for the kinact/KI in assay [1] (setting [3]) and in assay [2] (setting [4]) were 3100 M⁻¹ s⁻¹ and 66000 M⁻¹ s⁻¹, respectively. Consider `COc1oc(=O)c2cc(NC(=O)N(CCc3ccccc3)Cc3ccccc3)ccc2c1Cl` [7-(N-benzyl-N-phenylethylcarbamoyl)amino-4-chloro-3-methoxyisocoumarin], for which the values for the kinact/KI in assay [1] (setting [3]) and in assay [2] (setting [4]) were 17 M⁻¹ s⁻¹ and 12000 M⁻¹ s⁻¹, respectively. For `CC(C)(C)OC(=O)N[C@H](Cc1ccccc1)C(=O)Nc1ccc2c(Cl)c(OCCCBr)oc(=O)c2c1` [7-(N-t-butyloxycarbonyl-D-phenylalanyl)amino-4-chloro-3-(3-bromopropoxy)isocoumarin], the results for the kinact/KI (in assay [2] (setting [5]); on chymotrypsin (setting [6])) were 1480 M⁻¹ s⁻¹ and 70 M⁻¹ s⁻¹, respectively. For `CC(C)(C)OC(=O)N[C@@H](Cc1ccccc1)C(=O)Nc1ccc2c(Cl)c(OCCCBr)oc(=O)c2c1` [7-(N-t-butyloxycarbonyl-L-phenylalanyl)amino-4-chloro-3-(3-bromopropoxy)isocoumarin], in that order: 1320 M⁻¹ s⁻¹ and 490 M⁻¹ s⁻¹.

Regarding `COc1oc(=O)c2cc(NC(=O)C(NS(=O)(=O)c3ccc(C)cc3)c3ccccc3)ccc2c1Cl` (stereo not drawn) [7-(N-tosyl-α-phenylglycyl)amino-4-chloro-3-methoxyisocoumarin], the kinact/KI amounted to 1500 M⁻¹ s⁻¹ in assay [1] (setting [3]) and 84000 M⁻¹ s⁻¹ in assay [2] (setting [4]). For `COC(=O)Nc1cccc(C(=O)Nc2ccc3c(Cl)c(OC)oc(=O)c3c2)c1` [7-(m-methoxycarbonylaminobenzoyl)amino-4-chloro-3-methoxyisocoumarin], in that order: 2500 M⁻¹ s⁻¹ and 100000 M⁻¹ s⁻¹. Turning to `COC(=O)c1ccccc1C(=O)Nc1ccc2c(Cl)c(OC)oc(=O)c2c1` [7-(o-methoxyphthalyl)amino-4-chloro-3-methoxyisocoumarin], the kinact/KI in assay [1] (setting [3]) is 7100 M⁻¹ s⁻¹. As for `COc1oc(=O)c2cc(NC(=O)c3ccccc3C(=O)O)ccc2c1Cl` [7-(o-phthalyl)amino-4-chloro-3-methoxyisocoumarin], the kinact/KI is 2700 M⁻¹ s⁻¹ in assay [1] (setting [3]) and 52000 M⁻¹ s⁻¹ in assay [2] (setting [4]). Take `CCNC(=O)Nc1ccc2c(Cl)c(OC)oc(=O)c2c1` [7-EtNHCONH-4-chloro-3-methoxyisocoumarin, 7-ethylcarbamoylamino-4-chloro-3-methoxyisocoumarin]: the kinact/KI in assay [1] (setting [3]) is 1700 M⁻¹ s⁻¹.

On to `CCOC(=O)Nc1ccc2c(Cl)c(OC)oc(=O)c2c1` [7-EtOCONH-4-chloro-3-methoxyisocoumarin, 7-ethoxycarbonylamino-4-chloro-3-methoxyisocoumarin], for which the kinact/KI is 2000 M⁻¹ s⁻¹ in assay [1] (setting [3]) and 47000 M⁻¹ s⁻¹ in assay [2] (setting [4]). For `COc1oc(=O)c2cc(NC(=O)OCC3c4ccccc4-c4ccccc43)ccc2c1Cl` [7-Fmoc-NH-4-chloro-3-methoxyisocoumarin, 7-(9-fluorenylmethoxycarbonyl)amino-4-chloro-3-methoxyisocoumarin], in that order: 20 M⁻¹ s⁻¹ and 10000 M⁻¹ s⁻¹.

In the case of `COc1oc(=O)c2cc(NC(N)=O)ccc2c1Cl` [7-H2 NCONH-4-chloro-3-methoxyisocoumarin, 7-carbamoylamino-4-chloro-3-methoxyisocoumarin], in assay [1] (setting [3]), the kinact/KI is 2100 M⁻¹ s⁻¹. `COc1oc(=O)c2cc(N=C=O)ccc2c1Cl` [7-NCO-4-chloro-3-methoxyisocoumarin, 7-isocyanato-4-chloro-3-methoxyisocoumarin]: the kinact/KI is 650 M⁻¹ s⁻¹ in assay [1] (pH 7.5, read-out: kobs/[I]) and 9200 M⁻¹ s⁻¹ in assay [2] (pH 7.5, read-out: kobs/[I]).

`COc1oc(=O)c2cc(NC(=O)Nc3ccccc3)ccc2c1Cl` [7-PhNHCONH-4-chloro-3-methoxyisocoumarin, 7-phenylcarbamoylamino-4-chloro-3-methoxyisocoumarin]: the kinact/KI in assay [1] (setting [3]) is 7300 M⁻¹ s⁻¹; in assay [2] (setting [4]) it was 49000 M⁻¹ s⁻¹. Take `COc1oc(=O)c2cc(NC(=O)Oc3ccccc3)ccc2c1Cl` [7-PhOCONH-4-chloro-3-methoxyisocoumarin, 7-phenoxycarbonylamino-4-chloro-3-methoxyisocoumarin]: the kinact/KI in assay [1] (pH 7.5, read-out: kobs/[I]) worked out at 850 M⁻¹ s⁻¹; in assay [2] (pH 7.5, read-out: kobs/[I]), 13000 M⁻¹ s⁻¹. As for `COc1oc(=O)c2cc(NC(=O)OCc3ccccc3)ccc2c1Cl` [7-benzyloxycarbonylamino-4-chloro-3-methoxyisocoumarin], the kinact/KI in assay [1] (setting [3]) was found to be 260 M⁻¹ s⁻¹; in assay [2] (setting [4]), 71000 M⁻¹ s⁻¹.

For the compound `CCCOc1oc(=O)c2cc(NC(=S)NCc3ccccc3)ccc2c1Cl` [7-benzylthiocarbamoylamino-4-chloro-3-propyloxyisocoumarin], in assay [2] (setting [7]), the kinact/KI is more than 131000 M⁻¹ s⁻¹. For the compound `O=C(CCc1ccccc1)Nc1ccc2c(Cl)c(OCCCBr)oc(=O)c2c1` [7-dihydrocinnamoylamino-4-chloro-3-(3-bromopropoxy)isocoumarin], the kinact/KI came out at 35600 M⁻¹ s⁻¹ in assay [2] (pH 7.5, Table XVI, biphasic plot, read-out: kobs/[I] (biphasic, first value)); 9870 M⁻¹ s⁻¹ in assay [2] (pH 7.5, Table XVI, biphasic plot, read-out: kobs/[I] (biphasic, second value)); 600 M⁻¹ s⁻¹ on chymotrypsin (setting [6]). As for `CCOC(=O)Nc1ccc2c(Cl)c(OCC)oc(=O)c2c1` [7-ethoxycarbonylamino-4-chloro-3-ethoxyisocoumarin], in assay [1] (setting [3]), the kinact/KI was found to be 3500 M⁻¹ s⁻¹. As for `CCNC(=S)Nc1ccc2c(Cl)c(OCC)oc(=O)c2c1` [7-ethylthiocarbamoylamino-4-chloro-3-ethoxyisocoumarin], the kinact/KI in assay [1] (setting [3]) came to 4200 M⁻¹ s⁻¹. For `COc1oc(=O)c2cc(NC(=O)C(F)(F)C(F)(F)C(F)(F)F)ccc2c1Cl` [7-heptafluorobutyroylamino-4-chloro-3-methoxyisocoumarin], the kinact/KI was determined as 1100 M⁻¹ s⁻¹ in assay [1] (pH 7.5, read-out: kobs/[I]) and 47000 M⁻¹ s⁻¹ in assay [2] (pH 7.5, read-out: kobs/[I]).

On to `COc1oc(=O)c2cc(NC(=O)NC(C)C)ccc2c1Cl` [7-isopropylcarbamoylamino-4-chloro-3-methoxyisocoumarin], for which the kinact/KI in assay [1] (setting [3]) was 2300 M⁻¹ s⁻¹; in assay [2] (setting [4]), 9000 M⁻¹ s⁻¹.

Consider `COC(=O)CCCC(=O)Nc1ccc2c(Cl)c(OC)oc(=O)c2c1` [7-methoxyglutarylamino-4-chloro-3-methoxyisocoumarin], for which the kinact/KI is 2800 M⁻¹ s⁻¹ in assay [1] (setting [3]) and 54000 M⁻¹ s⁻¹ in assay [2] (setting [4]).

Take `COC(=O)CCC(=O)Nc1ccc2c(Cl)c(OC)oc(=O)c2c1` [7-methoxysuccinylamino-4-chloro-3-methoxyisocoumarin]: the kinact/KI was 2200 M⁻¹ s⁻¹ in assay [1] (setting [3]) and 43000 M⁻¹ s⁻¹ in assay [2] (setting [4]).

Consider `CNC(=O)Nc1ccc2c(Cl)c(OC)oc(=O)c2c1` [7-methylcarbamoylamino-4-chloro-3-methoxyisocoumarin], for which the kinact/KI in assay [1] (setting [3]) turned out to be 1300 M⁻¹ s⁻¹; in assay [2] (setting [4]), 9460 M⁻¹ s⁻¹. In the case of `O=C(Nc1ccccc1)Nc1ccc2c(Cl)c(OCCBr)oc(=O)c2c1` [7-phenylcarbamoylamino-4-chloro-3-(2-bromoethoxy)isocoumarin], the kinact/KI in assay [1] (Table XVI, pH 7.5, 25° C, [I] 0.04-2.0 mM, read-out: kobs/[I]) turned out to be 36 M⁻¹ s⁻¹; in assay [2] (pH 7.5, Table XVI, second order, equimolar inhibitor and enzyme, read-out: kobs/[I]), 1.2e+06 M⁻¹ s⁻¹; on chymotrypsin (setting [6]) it was 12 M⁻¹ s⁻¹. On to `CCCOc1oc(=O)c2cc(NC(=O)Nc3ccccc3)ccc2c1Cl` [7-phenylcarbamoylamino-4-chloro-3-propyloxyisocoumarin], for which the kinact/KI in assay [1] (pH 7.5, Table XII, 2.5% Me2SO, 25° C, [I] 34-56 μM, read-out: kobs/[I]) came out at 520 M⁻¹ s⁻¹; in assay [2] (setting [7]), 143000 M⁻¹ s⁻¹; at chymotrypsin (pH 7.5, Table XII, 2.5% Me2SO, 25° C, [I] 3.4-70 μM), 6100 M⁻¹ s⁻¹.

`CCOc1oc(=O)c2cc(NC(=S)Nc3ccccc3)ccc2c1Cl` [7-phenylthiocarbamoylamino-4-chloro-3-ethoxyisocoumarin]: in assay [1] (setting [3]), the kinact/KI was 12000 M⁻¹ s⁻¹. Consider `CCCOc1oc(=O)c2cc(NC(=S)Nc3ccccc3)ccc2c1Cl` [7-phenylthiocarbamoylamino-4-chloro-3-propyloxyisocoumarin], for which the kinact/KI in assay [2] (setting [7]) was more than 166000 M⁻¹ s⁻¹.
